The values below come from ChEMBL document CHEMBL1177813, “Design and synthesis of trivalent ligands targeting opioid, cholecystokinin, and melanocortin receptors for the treatment of pain” (Bioorg Med Chem Lett, 2010).

The source made the active and inactive calls. The rule behind the calls is not given here.

Test [1] in a line: Agonist activity at CCK receptor in Hartley guinea pig ileum longitudinal muscle with myenteric plexus assessed as inhibition of electrically-stimulated muscle contraction at 1 uM relative to KCl. Also noted: scale not given: the % may be the effect or the level left. The test is classed as functional, Cavia porcellus.
The target in test [2] is Mu-type opioid receptor (Cavia porcellus) (UniProt P97266). Briefly: Agonist activity at mu opioid receptor in guinea pig ileum assessed as inhibition of electrically-stimulated muscle contraction at 1 uM. The test is classed as functional, tissue-based. Also noted: scale not given: the % may be the effect or the level left.
Chain of Mu-type opioid receptor (Cavia porcellus) (P97266 whole entry): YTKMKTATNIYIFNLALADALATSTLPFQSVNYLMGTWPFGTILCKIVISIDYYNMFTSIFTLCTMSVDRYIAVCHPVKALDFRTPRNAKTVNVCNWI
Test [3] addresses Melanocortin receptor 4 (Homo sapiens, UniProt P32245). The test can be described thus: Displacement of Eu-NDP-alphaMSH from human MC4 receptor expressed in human HEK293 cells. The test is classed as cell-based.
Test [4] addresses T1, Cholecystokinin receptor type A (Homo sapiens, UniProt P32238).
T1 sequence (P32238 whole entry): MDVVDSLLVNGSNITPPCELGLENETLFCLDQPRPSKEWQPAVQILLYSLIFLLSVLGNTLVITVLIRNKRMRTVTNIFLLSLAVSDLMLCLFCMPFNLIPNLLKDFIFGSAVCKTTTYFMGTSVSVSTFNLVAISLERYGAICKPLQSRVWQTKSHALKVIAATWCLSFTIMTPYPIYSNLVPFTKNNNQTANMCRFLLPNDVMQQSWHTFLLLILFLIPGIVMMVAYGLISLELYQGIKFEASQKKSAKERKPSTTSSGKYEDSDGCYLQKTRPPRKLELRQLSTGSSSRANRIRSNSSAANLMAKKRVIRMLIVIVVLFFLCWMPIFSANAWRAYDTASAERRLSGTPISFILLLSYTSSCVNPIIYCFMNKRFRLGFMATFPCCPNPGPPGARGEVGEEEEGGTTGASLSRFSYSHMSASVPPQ
The test can be described thus: Displacement of [125I]CCK-8(SO3) from human CCK1 receptor expressed in human HEK293 cells. The test is classed as cell-based. The settings on record: for Ki: read-out: Ki.

Test [5] addresses Mu-type opioid receptor (Rattus norvegicus, UniProt P33535). Briefly: Displacement of [3H]DAMGO from rat mu opioid receptor expressed in mouse HN9.10 cells. The format is cell-based. (In general: Displacement assays read how much labelled ligand stays bound in the presence of the test substance.)
For test [6], the species on record is Cavia porcellus. The test can be described thus: […] activity at CCK receptor in Hartley guinea pig ileum longitudinal muscle with myenteric plexus assessed as inhibition of CCK8-stimulated muscle contraction at 1 uM. The format is functional, tissue-based.
For test [7], the target named is Delta-type opioid receptor (Homo sapiens, UniProt P41143). Briefly: Displacement of [3H]DPDPE from human delta opioid receptor expressed in mouse HN9.10 cells. The format is cell-based.
Chain of Delta-type opioid receptor (Homo sapiens, UniProt P41143) (P41143 whole entry): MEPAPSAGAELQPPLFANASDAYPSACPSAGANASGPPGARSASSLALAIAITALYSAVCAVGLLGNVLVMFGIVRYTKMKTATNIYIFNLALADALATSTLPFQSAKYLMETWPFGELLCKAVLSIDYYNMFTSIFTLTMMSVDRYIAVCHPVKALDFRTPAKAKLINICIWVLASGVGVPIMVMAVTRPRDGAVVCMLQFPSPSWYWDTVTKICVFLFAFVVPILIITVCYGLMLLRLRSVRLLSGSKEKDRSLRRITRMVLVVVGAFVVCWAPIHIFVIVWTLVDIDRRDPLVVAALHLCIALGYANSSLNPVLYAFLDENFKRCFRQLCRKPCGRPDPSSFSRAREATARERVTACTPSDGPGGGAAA
The target of test [8] is T2, Gastrin/cholecystokinin type B receptor (Homo sapiens, UniProt P32239).
T2 sequence (P32239 whole entry): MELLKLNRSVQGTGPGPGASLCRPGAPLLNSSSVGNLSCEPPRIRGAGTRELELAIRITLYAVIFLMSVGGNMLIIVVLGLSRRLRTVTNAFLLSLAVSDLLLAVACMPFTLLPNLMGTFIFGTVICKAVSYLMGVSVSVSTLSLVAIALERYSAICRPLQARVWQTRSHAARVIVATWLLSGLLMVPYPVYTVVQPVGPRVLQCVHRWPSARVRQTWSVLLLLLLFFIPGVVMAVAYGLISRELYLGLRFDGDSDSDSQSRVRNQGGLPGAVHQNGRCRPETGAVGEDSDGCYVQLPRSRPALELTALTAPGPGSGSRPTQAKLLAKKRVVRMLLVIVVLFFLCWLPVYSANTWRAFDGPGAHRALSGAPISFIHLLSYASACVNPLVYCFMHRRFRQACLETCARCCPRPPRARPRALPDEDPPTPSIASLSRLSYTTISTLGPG
The test can be described thus: Displacement of [125I]CCK-8(SO3) from human CCK2 receptor expressed in human HEK293 cells. The format is cell-based. The settings on record: for Ki: read-out: Ki.

Test [9] addresses Delta-type opioid receptor (Mus musculus) (UniProt P32300). Briefly: Agonist activity at delta opioid receptor in mouse vas deferens assessed as inhibition of electrically-stimulated muscle contraction at 1 uM. Also noted: scale not given: the % may be the effect or the level left. The test is classed as functional, tissue-based.
The target of test [10] is T3, Delta-type opioid receptor (Mus musculus, UniProt P32300). Briefly: Antagonist activity at delta opioid receptor in mouse vas deferens assessed as inhibition of DPDPE-induced muscle contraction. The format is functional, tissue-based.
T3 sequence (P32300 whole entry): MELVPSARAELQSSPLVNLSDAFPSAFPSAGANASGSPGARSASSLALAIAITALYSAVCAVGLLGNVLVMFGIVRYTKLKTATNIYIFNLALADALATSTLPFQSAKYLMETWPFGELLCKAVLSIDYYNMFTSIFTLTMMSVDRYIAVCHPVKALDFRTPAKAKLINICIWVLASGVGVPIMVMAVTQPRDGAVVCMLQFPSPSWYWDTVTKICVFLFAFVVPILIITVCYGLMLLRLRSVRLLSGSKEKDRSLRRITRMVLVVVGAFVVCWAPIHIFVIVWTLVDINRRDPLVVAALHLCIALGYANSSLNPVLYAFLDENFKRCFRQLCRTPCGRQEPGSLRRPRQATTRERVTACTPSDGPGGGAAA
Test [11] can be described thus: […] activity at CCK receptor in Hartley guinea pig ileum longitudinal muscle with myenteric plexus assessed as inhibition of CCK8-stimulated muscle contraction. The format is functional, Cavia porcellus.
The target in test [12] is T3, Delta-type opioid receptor. The test can be described thus: Agonist activity at delta opioid receptor in mouse vas deferens assessed as inhibition of electrically-stimulated muscle contraction. The format is functional, tissue-based.
Test [13] has as its target Mu-type opioid receptor (Cavia porcellus, UniProt P97266). The test can be described thus: Agonist activity at mu opioid receptor in guinea pig ileum assessed as inhibition of electrically-stimulated muscle contraction. The test is classed as functional, tissue-based.

Chain of Melanocortin receptor 4 (P32245 whole entry): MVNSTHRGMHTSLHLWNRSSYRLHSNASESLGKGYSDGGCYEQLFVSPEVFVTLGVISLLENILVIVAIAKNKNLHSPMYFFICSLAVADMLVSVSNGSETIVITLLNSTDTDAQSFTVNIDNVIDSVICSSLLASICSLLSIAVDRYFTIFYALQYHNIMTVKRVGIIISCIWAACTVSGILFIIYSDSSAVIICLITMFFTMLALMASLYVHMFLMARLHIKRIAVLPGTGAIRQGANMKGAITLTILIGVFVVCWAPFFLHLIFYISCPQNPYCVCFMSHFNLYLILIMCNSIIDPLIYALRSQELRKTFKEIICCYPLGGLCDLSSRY
Chain of Mu-type opioid receptor (Rattus norvegicus, UniProt P33535) (P33535 whole entry): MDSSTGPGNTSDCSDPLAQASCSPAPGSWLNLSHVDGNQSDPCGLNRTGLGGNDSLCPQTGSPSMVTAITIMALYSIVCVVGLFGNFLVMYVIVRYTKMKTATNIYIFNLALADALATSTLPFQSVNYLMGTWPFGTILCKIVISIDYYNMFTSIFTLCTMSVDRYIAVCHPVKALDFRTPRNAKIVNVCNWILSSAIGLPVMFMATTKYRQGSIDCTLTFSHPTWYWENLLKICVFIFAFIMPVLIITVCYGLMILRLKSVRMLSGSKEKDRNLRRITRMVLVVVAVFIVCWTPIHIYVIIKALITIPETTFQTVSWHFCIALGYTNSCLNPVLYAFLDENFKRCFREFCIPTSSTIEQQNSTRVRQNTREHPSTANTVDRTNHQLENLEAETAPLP
Chain of Mu-type opioid receptor (Cavia porcellus, UniProt P97266) (P97266 whole entry): as the sequence (P97266 whole entry) above
Chain of Delta-type opioid receptor (Mus musculus) (P32300 whole entry): as the sequence (P32300 whole entry) above

In general, IC50 refers to the concentration that inhibits the measured activity by half. The term Ki denotes the dissociation constant of the complex between target and ligand, obtained from inhibition or displacement. For `N=C(N)NCCC[C@@H]1NC(=O)[C@H](Cc2ccc(Cl)cc2)NC(=O)[C@H](Cc2cnc[nH]2)NC(=O)CNC(=O)[C@H](NC(=O)[C@@H](N)Cc2ccc(O)cc2)CC(=O)NCCCC[C@@H](C(=O)N[C@@H](CC(=O)O)C(=O)N[C@H](Cc2ccccc2)C(N)=O)NC(=O)[C@H](Cc2cc3ccccc3[nH]2)NC1=O`, the values for the Activity in test [1], in test [2] and in test [9] were 0%, 0% and 16%, respectively. In addition, the IC50 in test [3] is 32 nM; in [4] it was 126 nM; in test [5], 3980 nM; in test [7] it was 2510 nM; in test [8], 1000 nM. The Ki in [4] was 560 nM; in test [5], 2100 nM; in [7], 1300 nM; in [8] it was 930 nM. Further, the Ke entry in test [6] is “inactive”.
Take `CCCC[C@H](NC(=O)[C@H](Cc1c[nH]c2ccccc12)NC(=O)[C@H](CCCNC(=N)N)NC(=O)[C@@H](Cc1ccc2ccccc2c1)NC(=O)[C@H](Cc1cnc[nH]1)NC(=O)[C@@H]1Cc2ccccc2CN1C(=O)C(N)Cc1c(C)cc(O)cc1C)C(=O)N[C@@H](CC(=O)O)C(=O)N[C@@H](Cc1ccccc1)C(N)=O` (single isomer, unassigned): the Activity in [1] was 0%; in test [2], 5%. Also, the IC50 in test [10] is 2.5 nM; in test [3], 230 nM; in test [4] it was 15.8 nM; in [5], 100 nM; in test [7], 2 nM; in test [8] it was 200 nM. Also, the Ki was determined as 15 nM in test [4], 47 nM in [5], 0.91 nM in test [7] and 200 nM in test [8]. Besides, the Ke entry in [6] was “inactive”.
As for `CCCC[C@H](NC(=O)[C@H](Cc1c[nH]c2ccccc12)NC(=O)[C@H](CCCNC(=N)N)NC(=O)[C@@H](Cc1ccc2ccccc2c1)NC(=O)[C@H](Cc1cnc[nH]1)NC(=O)[C@H](Cc1ccccc1)NC(=O)CNC(=O)[C@@H](C)NC(=O)[C@@H](N)Cc1c(C)cc(O)cc1C)C(=O)N[C@@H](CC(=O)O)C(=O)N[C@@H](Cc1ccccc1)C(N)=O`, in test [1], the Activity was 0%. Further, the Ke in test [11] stood at 940 nM. Besides, the IC50 in [12] is 11 nM; in [3], 160 nM; in test [4], 20 nM; in test [5] it was 0.251 nM; in test [8], 126 nM; in test [13], 8.3 nM. In addition, the Ki was determined as 18 nM in test [4], 0.13 nM in [5] and 110 nM in [8].
